In publication PMC5915369 (Anticancer research, 2015):

How the values were obtained:
[1] = test system: HIF1α transcriptional activity; assay type: cell-based; conditions: Homo sapiens, 24 h, read-out: Menu IC50 ± SEM
[2] = test system: platelet aggregation; conditions: could lead to internal bleeding side effects; cited from earlier work

CN1C(=O)[C@]2(Cc3cn([C@]45C[C@@]67SS[C@@](CO)(C(=O)N6[C@H]4Nc4ccccc45)N(C)C7=O)c4ccccc34)SS[C@@]1(CO)C(=O)N2C [Chetomin]
IC50 [1]: 40 ± 10 nM

OCc1ccc(-c2nn(Cc3ccccc3)c3ccccc23)o1 [YC-1, 3-(5′-hydroxymethyl-2′-furyl)-1-benzyl indazole]
inhibition of platelet aggregation [2]: strong inhibition of platelet aggregation
